US20040034026A1, “Combination comprising an agent decreasing vegf activity and an agent decreasing egf activity” (priority 2000, published 2004)

How the values were obtained:
[1] = tested on: DU145 prostate carcinoma human cell lines; test: DU145 prostate carcinoma human cell lines grown i.d. in nude mice; type: in vivo
Procedure: DU145 Prostate Carcinoma Human Cell Lines Grown i.d. in Nude Mice
DU145 prostate carcinoma human cell lines are grown i.d. in nude mice. Tumor cell (10^6) are injected intradermally (i.d.) on the left and right flank of nude mice. Treatment with compounds is started after 25-32 days when tumors reach a size of 80-100 mm^2. At this time animals are sorted into groups with equivalent mean and range of tumor sizes. Treatment is then randomized to the different groups. Tumor size is measured with calipers on a weekly basis.
After 4 weeks of treatment, 50 mg/kg po/day of PTK787 (active ingredient 1) reduces the tumor growth by 74%. 50 mg/kg po/day of the selective EGF receptor tyrosine kinase inhibitor as described in Example 1 of WO 96/33980 (active ingredient 2) reduces tumor growth by 91%. The maximum effects of either agent given alone in this model is stable disease. Simultaneous treatment with both active ingredients (50 mg/kg po/day of each active ingredient) results in tumor regression (25% reduction compared to intial tumor weight).
After 2 weeks of treatment, 50 mg/kg po/day of PTK787 (active ingredient 1) reduces the tumor growth by 41%. 50 mg/kg po/day of the selective EGF receptor tyrosine kinase inhibitor PKI166 reduces tumor growth by 44%. Simultaneous treatment with both active ingredients (50 mg/kg po/day of each active ingredient) reduces the tumor growth by 74%.

[2] = tested on: NeuT transfected HC11 mouse mammary epithelial cells (breast tumors); test: Mouse breast carcinoma induced by transfection of breast epithelial cells with NeuT (transgenic organ tumor model); type: in vivo; conditions: female BALB/c mice, 100 mg/kg of each active ingredient once per day; fraction of tumors
Procedure: Treatment of Mouse Breast Carcinoma Induced by Transfection of Breast Epithelial Cells with NeuT (Transgenic Organ Tumor Model)
The dual treatment with PTK787 in the form of its succinate salt (active ingredient 1, Example 62 of WO 98/35958) and an EGF receptor tyrosine inhibitor of formula IV wherein q′ is 1, n′ is 0, R^E1 is hydrogen, R^E2 is 3-acetylamino phenyl and R^E6 is methyl (active ingredient 2, Example 22e of WO 97/02266) is performed on a genetically engineered tumor model, which uses “transgenic” organs in normal mice. NeuT (the point mutated rat homolog of erbB-2) transfected HC11 epithelial mouse mammary epithelial cells are transplanted into the gland-free mammary fat pad (cleared fat-pad) of the fourth mammary gland of female BALB/c mice according to an established method (DeOme, Faulkin, et al., Cancer Res. 19: 515-520, 1959). Within 4 to 6 weeks, the transplanted oncogene-transfected mammary epithelial cells develop breast tumors. Tumors are focal and heterogeneous in morphology, and oncogene and other molecular marker expression. Tumors grow rapidly and most of the animals develop breast tumors bilaterally after transplantation. The animals are allocated randomly to three different treatment groups. A first group is treated with 100 mg/kg of active ingredient 1 dosed once per day alone; a second group is treated with 100 mg/kg of active ingredient 2 dosed once per day alone; and a third group is treated with the combination of both active ingredients dosed with 100 mg/kg once per day. […]

[3] = 50 mg/kg po/day, after 4 weeks of treatment
[4] = 50 mg/kg po/day of each active ingredient, after 2 weeks of treatment

Structure (SMILES)	reduction of tumor growth [1, 3] [%]	reduction of tumor growth [1, 4] [%]	tumors with regression [2] [%]	tumors with stable disease [2] [%]	tumors without response to the treatment [2] [%]
COc1cc2ncnc(Nc3ccc(F)c(Cl)c3)c2cc1OCCCN1CCOCC1 [Example 1 of WO 96/33980, reference compound]	91	–	–	–	–
C[C@@H](Nc1ncnc2[nH]c(-c3ccc(O)cc3)cc12)c1ccccc1 [PKI166]	–	44	–	–	–
Clc1ccc(Nc2nnc(Cc3ccncc3)c3ccccc23)cc1 [PTK787]	74	41	7	21	78
